# Source: patent publication US11207312B2, “Metallo-beta-lactamase inhibitors and methods of use thereof” (priority 2017, dated 2021)
# What was measured:
# VIM-2 = VIM-2 (Escherichia coli, UniProt Q5U7L7); assay: biochemical; settings: CCF2-FA fluorescence assay; read-out: VIM2 IC50
# [1] = system: P. aeruginosa MB9799 (efflux-, IMP-1 plasmid); format: cell-based, Pseudomonas aeruginosa; settings: efflux − (MB9799) strain; imipenem at 2 μg/mL; in the presence of a class A, C, D serine β-lactamase inhibitor closely related to relebactam
# Summary of the method: (§1)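 PAO1-derived isogenic pair (oprD+, inducible AmpC), efflux+ MB5919 or efflux− MB5890 parent, carrying an electroporated IMP-1 plasmid from a clinical isolate. Microbroth MIC with fixed imipenem and/or ceftazidime (usually CLSI breakpoint) plus fixed class A/C inhibitor; MBL inhibitor serially titrated, concentration restoring susceptibility recorded.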
# [2] = system: P. aeruginosa MB9798 (efflux+, IMP-1 plasmid); settings: for MB9798 MITC95 P. aeruginosa uM Efflux WT: efflux + (MB9798) strain, imipenem at 2 μg/mL, in the presence of a class A, C, D serine β-lactamase inhibitor closely related to relebactam; for Efflux ratio: fold difference between efflux+ (MB9798) and efflux− (MB9799) strains
# Summary of the method: as §1
# IMP-1 = IMP-1 (Serratia marcescens, UniProt P52699); assay: biochemical; settings: CCF2-FA fluorescence assay, 2 hours at 25° C.; read-out: IMP1 IC50
# Summary of the method: (§2)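 Buffer 100 mM KH2PO4 pH 7, 0.005% Tween-20, 10 μM ZnSO4. NDM-1 1 pM, IMP-1 2 pM, VIM-1 30 pM final; CCF2-FA 1.25 μM. Cpd 20–0.00063 μM, 2 h, 25° C. Ex 405/Em 460 nm; IC50 via 4-parameter curve.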
# VIM-1 = VIM-1 (Pseudomonas aeruginosa (strain ATCC 15692 / DSM 22644 / CIP 104116 / JCM 14847 / LMG 12228 / 1C / PRS 101 / PAO1), UniProt A0A0F7KYQ8); assay: biochemical; settings: CCF2-FA fluorescence assay, 2 hours at 25° C.; read-out: VIM1 IC50
# Summary of the method: as §2
# [3] = system: Klebsiella pneumoniae expressing VIM-1 (IHMA599644); format: cell-based; settings: with imipenem 1 μg/ml; 95% inhibition of bacterial growth
# Summary of the method: (§3)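 Imipenem 1 μg/ml + inhibitor titration in cation-adjusted MHB (1.1× stock medium); overnight-cultured colonies suspended in saline, diluted 1:100. 35 °C, 22–24 h; absorbance read. MITC95 = lowest compound conc giving 95% growth inhibition.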
# [4] = system: Escherichia coli expressing NDM-1 (CLB30016); format: cell-based; settings: with imipenem 1 μg/ml; 95% inhibition of bacterial growth
# Summary of the method: as §3
# [5] = system: Serratia marcescens expressing IMP-1 (CL5741); format: cell-based; settings: with imipenem 1 μg/ml; 95% inhibition of bacterial growth
# Summary of the method: as §3
# NDM-1 = NDM-1 (Klebsiella pneumoniae, UniProt C7C422); assay: biochemical; format: biochemical; settings: CCF2-FA fluorescence assay, 2 hours at 25° C.
# Summary of the method: as §2
# Sequence of IMP-1 (P52699 whole entry, looked up, species assumed): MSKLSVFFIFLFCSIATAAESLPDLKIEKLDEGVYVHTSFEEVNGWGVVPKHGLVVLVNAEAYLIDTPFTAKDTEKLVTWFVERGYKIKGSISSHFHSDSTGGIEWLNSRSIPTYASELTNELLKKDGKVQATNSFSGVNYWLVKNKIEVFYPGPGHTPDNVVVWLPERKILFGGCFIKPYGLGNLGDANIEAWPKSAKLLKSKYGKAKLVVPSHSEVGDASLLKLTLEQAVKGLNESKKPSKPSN
# Sequence of NDM-1 (C7C422 whole entry, looked up, species assumed): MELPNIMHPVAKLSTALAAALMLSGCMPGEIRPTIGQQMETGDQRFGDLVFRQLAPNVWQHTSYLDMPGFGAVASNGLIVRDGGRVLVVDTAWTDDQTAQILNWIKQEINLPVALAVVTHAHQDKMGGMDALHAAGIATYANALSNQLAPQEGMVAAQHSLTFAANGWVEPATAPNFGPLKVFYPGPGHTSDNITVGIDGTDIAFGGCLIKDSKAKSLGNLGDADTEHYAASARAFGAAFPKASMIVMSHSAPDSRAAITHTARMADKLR
SMILES,IC50 (VIM-2) [nM],MB9799 MITC95 P. aeruginosa uM Efflux Mutant [1] [µM],MB9798 MITC95 P. aeruginosa uM Efflux WT [2] [µM],Efflux ratio [2],IC50 (IMP-1) [nM],IC50 (VIM-1) [nM],IHMA599644 K. pneumoniae MITC95 VIM [3] [µM],CLB30016 E. coli MITC95 NDM [4] [µM],CL5741 S. marcescens MITC95 IMP [5] [µM],IC50 (NDM-1) [nM]
"Cl.Cl.NCC1CCN(c2ccc(S(=O)(=O)N[C@@H]3CCNC3)c(S(N)(=O)=O)c2-c2nn[nH]n2)CC1 [Example 135, (R)-4-(4-(aminomethyl)piperidin-1-yl)-N1-(pyrrolidin-3-yl)-3-(2H-tetrazol-5-yl)benzene-1,2-disulfonamide dihydrochloride]",3,0.39,0.59,1.50,3.43,0.16,1.17,0.59,0.78,1.13
"CN(CCO)CCN(C)c1ccc(S(=O)(=O)NC[C@H](O)CN)c(S(N)(=O)=O)c1-c1nn[nH]n1 [Example 136, (R)—N1-(3-amino-2-hydroxypropyl)-4-((2-((2-hydroxyethyl)(methyl)amino)ethyl)(methyl)amino)-3-(2H-tetrazol-5-yl)benzene-1,2-disulfonamide]",27.4,12.50,50.00,4.00,200,14.2,1.56,3.13,12.50,200
"N.NC[C@@H](O)CNS(=O)(=O)c1ccc(N2CCN(CC(=O)O)CC2)c(-c2nnn[nH]2)c1S(N)(=O)=O [Example 137, ammonium (R)-2-(4-(4-(N-(3-amino-2-hydroxypropyl)sulfamoyl)-3-sulfamoyl-2-(1H-tetrazol-5-yl)phenyl)piperazin-1-yl)acetate]",15.3,3.13,6.25,2.00,4.97,16.1,6.25,0.78,1.56,3.5
"CC1(CN)CCN(c2ccc(S(=O)(=O)NC[C@H](O)CN)c(S(N)(=O)=O)c2-c2nn[nH]n2)CC1 [Example 138, (R)-N1-(3-amino-2-hydroxypropyl)-4-(4-(aminomethyl)-4-methylpiperidin-1-yl)-3-(2H-tetrazol-5-yl)benzene-1,2-disulfonamide]",10.3,0.78,1.56,2.00,6.91,0.71,1.56,1.56,1.56,2.47
"NCC1CCCN(c2ccc(S(=O)(=O)NC[C@H](O)CN)c(S(N)(=O)=O)c2-c2nn[nH]n2)CC1 (stereo partly drawn) [Example 139, N1-((R)-3-amino-2-hydroxypropyl)-4-(4-(aminomethyl)azepan-1-yl)-3-(2H-tetrazol-5-yl)benzene-1,2-disulfonamide bis(2,2,2-trifluoroacetate)]",4.52,0.78,1.56,2.00,18.5,0.39,1.56,0.78,0.78,18.2
"NCCC1CCCN(c2ccc(S(=O)(=O)NC[C@H](O)CN)c(S(N)(=O)=O)c2-c2nn[nH]n2)CC1 (stereo partly drawn) [Example 140, N1-((R)-3-amino-2-hydroxypropyl)-4-(4-(2-aminoethyl)azepan-1-yl)-3-(2H-tetrazol-5-yl)benzene-1,2-disulfonamide bis(2,2,2-trifluoroacetate)]",1.87,0.78,1.56,2.00,6.34,0.1,0.78,1.56,0.78,3.75
"NC[C@@H](O)CNS(=O)(=O)c1ccc(N2CCC3CNCC3C2)c(-c2nnn[nH]2)c1S(N)(=O)=O (stereo partly drawn) [Example 141, N1-((R)-3-amino-2-hydroxypropyl)-4-(hexahydro-1H-pyrrolo[3,4-c]pyridin-5(6H)-yl)-3-(1H-tetrazol-5-yl)benzene-1,2-disulfonamide]",15.7,1.56,6.25,4.00,11.9,0.43,1.56,1.56,1.56,15.8
"NC[C@@H](O)CNS(=O)(=O)c1ccc(N2CCC(NCCO)CC2)c(-c2nn[nH]n2)c1S(N)(=O)=O [Example 142, (R)-N1-(3-amino-2-hydroxypropyl)-4-(4-((2-hydroxyethyl)amino)piperidin-1-yl)-3-(2H-tetrazol-5-yl)benzene-1,2-disulfonamide bis(2,2,2-trifluoroacetate)]",9.26,0.78,0.78,1.00,5.95,0.42,1.56,0.39,0.78,7.59
"NC[C@@H](O)CNS(=O)(=O)c1ccc(N[C@H]2C[C@@H](N)C2)c(-c2nnn[nH]2)c1S(N)(=O)=O [Example 143, N1-((R)-3-amino-2-hydroxypropyl)-4-(((1s,3S)-3-aminocyclobutyl)amino)-3-(1H-tetrazol-5-yl)benzene-1,2-disulfonamide]",200,3.13,6.25,2.00,70.4,100,12.50,1.56,1.56,111
"NCCC1CN(c2ccc(S(=O)(=O)NC[C@H](O)CN)c(S(N)(=O)=O)c2-c2nn[nH]n2)C1 [Example 144, (R)-N1-(3-amino-2-hydroxypropyl)-4-(3-(2-aminoethyl)azetidin-1-yl)-3-(2H-tetrazol-5-yl)benzene-1,2-disulfonamide]",200,3.13,12.50,4.00,89.6,4.23,3.13,3.13,6.25,111
"NCCC(=O)N1CCN(c2ccc(S(=O)(=O)NC[C@H](O)CN)c(S(N)(=O)=O)c2-c2nn[nH]n2)CC1 [Example 145, (R)—N1-(3-amino-2-hydroxypropyl)-4-(4-(3-aminopropanoyl)piperazin-1-yl)-3-(2H-tetrazol-5-yl)benzene-1,2-disulfonamide]",8.32,0.78,0.78,1.00,4.7,0.46,1.56,0.39,0.78,1.68
